{"source": "patent US8084479B2", "about": "“Thiazole compounds and methods of use” (Amgen Inc., priority 2006, dated 2011)", "note": "Counter-ions that a name gives are not always drawn."}
{"target": "PKBα (Homo sapiens, UniProt P31749)", "sequence (P31749 118-480 limits assumed)": "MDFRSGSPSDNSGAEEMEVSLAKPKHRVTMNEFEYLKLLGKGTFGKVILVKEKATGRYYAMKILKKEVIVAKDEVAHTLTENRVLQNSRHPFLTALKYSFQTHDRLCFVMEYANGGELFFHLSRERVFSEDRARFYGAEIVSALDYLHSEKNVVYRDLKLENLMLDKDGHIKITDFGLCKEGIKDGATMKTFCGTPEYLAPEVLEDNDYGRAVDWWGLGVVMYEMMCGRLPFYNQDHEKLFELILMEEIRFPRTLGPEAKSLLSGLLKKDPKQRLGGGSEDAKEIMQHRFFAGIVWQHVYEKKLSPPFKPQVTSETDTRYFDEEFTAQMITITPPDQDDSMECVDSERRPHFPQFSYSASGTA", "test": "PKB kinase assay (P33-labeled ATP, peptide substrate, filter plate)", "assay_type": "biochemical", "conditions": "PKBα enzyme (full length or kinase domain with pleckstrin domain deleted)", "text": "The kinase assay for evaluating PKB activity comprises active PKB enzymes, a PKB specific substrate, and P^33-labeled ATP. […] The phosphorylated substrate was captured by a phosphocellulose membrane filter plate (MLLIPORE) and measured by a Wallac Microbeta liquid scintillation counter (Perkin Elmer).", "units": {"IC50": "nM"}}
{"compound": "N[C@H](CNc1ncc(-c2ccc3[nH]c(=O)oc3c2)s1)Cc1cccc(C(F)(F)F)c1", "note": "[Example 46, 6-(2-((S)-2-amino-3-(3-(trifluoromethyl)phenyl)propylamino)thiazol-5-yl)benzo[d]oxazol-2(3H)-one]", "IC50": "50 to 1000"}
{"compound": "COC(=O)c1nc(NC[C@@H](N)Cc2ccc(C(F)(F)F)cc2)sc1-c1ccc2c(c1)CC(=O)N2", "note": "[Example 122, Methyl 2-((S)-2-amino-3-(4-(trifluoromethyl)phenyl)propylamino)-5-(2-oxoindolin-5-yl)thiazole-4-carboxylate]", "IC50": "50 to 1000"}
{"compound": "N[C@H](CNc1ncc(-c2ccc3c(c2)CC(=O)N3)s1)Cc1ccc(OCCCCl)cc1", "note": "[Example 94, 5-(2-((S)-2-Amino-3-(4-(3-chloropropoxy)phenyl)propylamino)thiazol-5-yl)indolin-2-one]", "IC50": "1000 to 10000"}
{"compound": "Cn1c(=O)[nH]c2ccc(-c3sc(NC[C@@H](N)Cc4ccc(C(F)(F)F)cc4)nc3C#N)cc21", "note": "[Example 62, 2-((S)-2-amino-3-(4-(trifluoromethyl)phenyl)propylamino)-5-(3-methyl-2-oxo-2,3-dihydro-1H-benzo[d]imidazol-5-yl)thiazole-4-carbonitrile]", "IC50": "1000 to 10000"}
{"compound": "N[C@H](CNc1nc(O)c(-c2ccc(F)c(F)c2)s1)Cc1ccc(Cl)cc1", "note": "[Example 80, 2-((S)-2-Amino-3-(4-chlorophenyl)propylamino)-5-(3,4-difluorophenyl)thiazol-4-ol dihydrochloride]", "IC50": "50 to 1000"}
{"compound": "N[C@H](CNc1ncc(-c2ccc3cnccc3c2)s1)Cc1cccc(Cl)c1", "note": "[Example 66, N—((S)-2-amino-3-(3-chlorophenyl)propyl)-5-(isoquinolin-6-yl)thiazol-2-amine]", "IC50": "< 50"}
{"compound": "Cn1c(=O)[nH]c2ccc(-c3cnc(NCC(N)Cc4ccc(C(F)(F)F)c(F)c4F)s3)cc21", "note": "(centres unmarked) [Example 191, 6-(2-(2-amino-3-(2,3-difluoro-4-(trifluoromethyl)phenyl)propylamino)thiazol-5-yl)-1-methyl-1H-benzo[d]imidazol-2(3H)-one]", "IC50": "50 to 1000"}
{"compound": "N[C@H](CNc1nc(CO)c(-c2ccc3[nH]c(=O)oc3c2)s1)Cc1ccc(C(F)(F)F)cc1", "note": "[Example 125, 6-(2-((S)-2-Amino-3-(4-(trifluoromethyl)phenyl)propylamino)-4-(hydroxymethyl)thiazol-5-yl)benzo[d]oxazol-2(3H)-one]", "IC50": "< 50"}
{"compound": "N[C@H](CNc1ncc(-c2ccc3c(c2)CC(=O)N3)s1)Cc1ccc(OCCCO)cc1", "note": "[Example 95, 5-(2-((S)-2-Amino-3-(4-(3-hydroxypropoxy)phenyl)propylamino)-thiazol-5-yl)indolin-2-one]", "IC50": "1000 to 10000"}
{"compound": "N[C@H](CNc1ncc(-c2ccc3[nH]c(=O)oc3c2)s1)Cc1cc(F)cc(F)c1", "note": "[Example 164, 6-(2-((S)-2-amino-3-(3,5-difluorophenyl)propylamino)thiazol-5-yl)benzo[d]oxazol-2(3H)one]", "IC50": "50 to 1000"}
{"compound": "N#Cc1nc(NC[C@@H](N)Cc2ccc(C(F)(F)F)cc2)sc1-c1ccc2cnccc2c1", "note": "[Example 63, 2-((S)-2-amino-3-(4-(trifluoromethyl)phenyl)propylamino)-5-(isoquinolin-6-yl)thiazole-4-carbonitrile]", "IC50": "1000 to 10000"}
{"compound": "N[C@H](CNc1ncc(-c2cc(F)c3c(c2)CC(=O)N3)s1)Cc1ccc(C(F)(F)F)cc1", "note": "[Example 220, 5-(2-((S)-2-amino-3-(4-(trifluoromethyl)phenyl)propylamino)thiazol-5-yl)-7-fluoroindolin-2-one]", "IC50": "< 50"}
{"compound": "Cc1ccc(C[C@H](N)CNc2ncc(-c3ccc4c(c3)CC(=O)N4)s2)cc1", "note": "[Example 116, 5-(2-((S)-2-Amino-3-p-tolylpropylamino)thiazol-5-yl)indolin-2-one]", "IC50": "50 to 1000"}
{"compound": "N[C@H](CNc1ncc(-c2ccc3c(c2)CC(=O)N3)s1)Cc1ccc(C(F)(F)F)cc1", "note": "[Example 42, 5-(2-((S)-2-amino-3-(4-(trifluoromethyl)phenyl)propylamino)thiazol-5-yl)indolin-2-one]", "IC50": "< 50"}
{"compound": "N[C@@H](Cc1ccc(C(F)(F)F)cc1)CN(Cc1ccccc1)c1ncc(-c2nc3ccncc3s2)s1", "note": "[Example 30, N—((S)-2-amino-3-(4-(trifluoromethyl)phenyl)propyl)-N-benzyl-5-(thiazolo[5,4-c]pyridin-2-yl)thiazol-2-amine]", "IC50": "50 to 1000"}
{"compound": "N[C@H](CNc1ncc(-c2ccc3[nH]c(=O)oc3c2)s1)Cc1ccc(C(F)(F)F)c(F)c1", "note": "[Example 183, 6-(2-((S)-2-amino-3-(3-fluoro-4-(trifluoromethyl)phenyl)propylamino)thiazol-5-yl)benzo[d]oxazol-2(3H)-one]", "IC50": "< 50"}
{"compound": "CC1C(=O)Nc2ccc(-c3cnc(NC[C@@H](N)Cc4ccc(C(F)(F)F)cc4)s3)cc21", "note": "(stereo partly drawn) [Example 47, 5-(2-((S)-2-amino-3-(4-(trifluoromethyl)phenyl)propylamino)thiazol-5-yl)-3-methylindolin-2-one]", "IC50": "50 to 1000"}
{"compound": "N[C@H](CNc1ncc(-c2ccc3c(c2)CC(=O)N3)s1)Cc1ccc(F)c(F)c1", "note": "[Example 126, 5-(2-((S)-2-Amino-3-(3,4-difluorophenyl)propylamino)thiazol-5-yl)indolin-2-one]", "IC50": "50 to 1000"}
{"compound": "N[C@H](CNc1ncc(-c2ccc3[nH]c(=O)oc3c2)s1)Cc1ccc(C(F)(F)F)nc1", "note": "[Example 172, 6-(2-((S)-2-amino-3-(6-(trifluoromethyl)pyridine-3-yl)propylamino)thiazol-5-yl)benzo[d]oxazol-2(3H)-one]", "IC50": "< 50"}
{"compound": "Cn1c(=O)[nH]c2ccc(-c3cnc(NC[C@@H](N)Cc4ccc5ccccc5c4)s3)cc21", "note": "[Example 203, 6-(2-((S)-2-amino-3-(naphthalen-2-yl)propylamino)thiazol-5-yl)-1-methyl-1H-benzo[d]imidazol-2(3H)-one]", "IC50": "50 to 1000"}
{"compound": "NC(CNc1ncc(-c2ccc3[nH]c(=O)oc3c2)s1)Cc1ccc(O)c(F)c1", "note": "(centres unmarked) [Example 216, 6-(2-(2-Amino-3-(3-fluoro-4-hydroxyphenyl)propylamino)thiazol-5-yl)benzo[d]oxazol-2(3H)-one]", "IC50": "50 to 1000"}
{"compound": "C[C@@H](Nc1ncc(-c2ccc3[nH]c(=O)oc3c2)s1)[C@@H](N)Cc1ccc(C(F)(F)F)cc1", "note": "[Example 231, 6-(2-((2R,3S)-3-amino-4-(4-(trifluoromethyl)phenyl)butan-2-ylamino)thiazol-5-yl)benzo[d]oxazol-2(3H)-one]", "IC50": "50 to 1000"}
{"compound": "COCc1nc(NC[C@@H](N)Cc2ccc(C(F)(F)F)cc2)sc1-c1ccc2cnccc2n1", "note": "[Example 71, N—((S)-2-amino-3-(4-(trifluoromethyl)phenyl)propyl)-4-(methoxymethyl)-5-(1,6-naphthyridin-2-yl)thiazol-2-amine]", "IC50": "< 50"}
{"compound": "COCc1nc(N(C[C@@H](N)Cc2cccc(Cl)c2)C(C)=O)sc1-c1nc2ccncc2s1", "note": "[Example 17, N—((S)-2-amino-3-(3-chlorophenyl)propyl)-N-(4-(methoxymethyl)-5-(thiazolo[5,4-c]pyridin-2-yl)thiazol-2-yl)acetamide]", "IC50": "1000 to 10000"}
{"compound": "C[C@@H](c1ccc(C(F)(F)F)cc1)[C@H](N)CNc1ncc(-c2ccc3c(c2)C2(CC2)C(=O)N3)s1", "note": "[Example 200, 5′-(2-((2S,3S)-2-amino-3-(4-(trifluoromethyl)phenyl)butylamino)thiazol-5-yl)spiro[cyclopropane-1,3′-indol]-2′(1′H)-one]", "IC50": "50 to 1000"}
{"compound": "C[C@@H](Nc1ncc(-c2ccc3cnccc3c2)s1)[C@@H](N)Cc1ccc(C(F)(F)F)cc1", "note": "[Example 230, N-((2R,3S)-3-amino-4-(4-(trifluoromethyl)phenyl)butan-2-yl)-5-(isoquinolin-6-yl)thiazol-2-amine]", "IC50": "< 50"}
{"compound": "N[C@H](CNc1nc(CO)c(-c2ccc3[nH]ncc3c2)s1)Cc1ccc(C(F)(F)F)cc1", "note": "[Example 12, (2-((S)-2-amino-3-(4-(trifluoromethyl)phenyl)propylamino)-5-(1H-indazol-5-yl)thiazol-4-yl)methanol]", "IC50": "< 50"}
{"compound": "Nc1n[nH]c2cc(-c3cnc(NC[C@@H](N)Cc4ccc(C(F)(F)F)cc4)s3)ccc12", "note": "[Example 52, 6-(2-((S)-2-amino-3-(4-(trifluoromethyl)phenyl)propylamino)thiazol-5-yl)-1H-indazol-3-amine]", "IC50": "1000 to 10000"}
{"compound": "N[C@H](CNc1nc(-c2ccccc2)c(-c2ccc3cnccc3c2)s1)Cc1ccc(C(F)(F)F)cc1", "note": "[Example 9, N—((S)-2-amino-3-(4-(trifluoromethyl)phenyl)propyl)-5-(isoquinolin-6-yl)-4-phenylthiazol-2-amine]", "IC50": "50 to 1000"}
{"compound": "Cn1ncc2ccc(-c3cnc(NC[C@@H](N)Cc4ccc(C(F)(F)F)cc4)s3)cc21", "note": "[Example 167, N—((S)-2-amino-3-(4-(trifluoromethyl)phenyl)propyl)-5-(1-methyl-1H-indazol-6-yl)thiazol-2-amine]", "IC50": "1000 to 10000"}
{"compound": "Nc1n[nH]c2ccc(-c3cnc(NC[C@@H](N)Cc4ccc(C(F)(F)F)cc4)s3)cc12", "note": "[Example 50, 5-(2-((S)-2-amino-3-(4-(trifluoromethyl)phenyl)propylamino)thiazol-5-yl)-1H-indazol-3-amine]", "IC50": "50 to 1000"}
{"compound": "N[C@H](CNc1ncc(-c2ccc3c(c2)CC(=O)N3)s1)Cc1ccc(Cl)c(F)c1", "note": "[Example 86, 5-(2-((S)-2-Amino-3-(4-chloro-3-fluorophenyl)propylamino)thiazol-5-yl)indolin-2-one]", "IC50": "< 50"}
{"compound": "COCc1nc(NC[C@@H](N)Cc2ccc(Cl)cc2)sc1-c1nc2ccncc2s1", "note": "[Example 19, N—((S)-2-amino-3-(4-chlorophenyl)propyl)-4-(methoxymethyl)-5-(thiazolo[5,4-c]pyridin-2-yl)thiazol-2-amine]", "IC50": "< 50"}
{"compound": "C[C@H](Nc1ncc(-c2ccc3[nH]c(=O)n(C)c3c2)s1)[C@@H](N)Cc1ccc(C(F)(F)F)cc1", "note": "[Example 237, 6-(2-((2S,3S)-3-amino-4-(4-(trifluoromethyl)phenyl)butan-2-ylamino)thiazol-5-yl)-1-methyl-1H-benzo[d]imidazol-2(3H)-one]", "IC50": "1000 to 10000"}
{"compound": "CCC[C@@H](c1ccc(C(F)(F)F)cc1)[C@H](N)CNc1ncc(-c2ccc3c(c2)CC(=O)N3)s1", "note": "[Example 156, 5-(2-((2S,3S)-2-amino-3-(4-(trifluoromethyl)phenyl)hexylamino)thiazol-5-yl)indolin-2-one]", "IC50": "50 to 1000"}
